Experimental data as given in patent publication US7910750B2, “Artemisinin (qinghaosu) derivatives, their preparation methods and their use, and pharmaceutical compositions containing the same” (Shanghai Institute of Materia Medica, Chinese Academy of …, priority 2005, dated 2011).
≈ marks a conversion by molar mass, not a printed value. Where two headings read alike, the source gives them in different places.

Columns and labels:
T lymphocyte = assay: Lymphocyte proliferation test, T lymphocyte proliferation response induced by ConA ([3H]-thymidine); format: cell-based, mouse; settings: 48 hours
Method: B. Lymphocyte Proliferation Test […] […] 3. After incubated in 5% CO2 incubator at 37° C. for 48 hours, 0.5 μCi [^3H]-thymidine (25 μL/well) was added into each well 7-8 hours before the termination of the incubation. 4.

[1] = Lymphocytotoxicity test (MTT); format: cell-based, mouse; settings: BALB/c, primary spleen cells (splenic mononuclear cells), mouse spleen cells
Method: (§1) A. Lymphocytotoxicity Test
(§2) 1. BALB/c mice were killed by cervical dislocation, and their spleens were removed aseptically. A single spleen cell suspension was prepared and cell debris and clumps were removed.
(§3) 2. 80 μL cell suspension, 40 μL testing sample, 40 μL medium containing 10% FBS were added into 96 well plate; for the control group, 80 μL medium was added the total volume was 160 μL, and blank control group was set.
(§4) 3. After incubated in 5% CO2 incubator at 37° C. for 48 hours, 16 μL MTT (5 mg/mL) reagent was added into each well 6-7 hours before the termination of the incubation.

B lymphocyte = assay: Lymphocyte proliferation test, B lymphocyte proliferation response induced by LPS ([3H]-thymidine); format: cell-based, mouse; settings: 48 hours
Method: 3. After incubated in 5% CO2 incubator at 37° C. for 48 hours, 0.5 μCi [^3H]-thymidine (25 μL/well) was added into each well 7-8 hours before the termination of the incubation. 4.

[2] = test system: BALB/c mouse spleen cells; assay: Lymphocytotoxicity test (MTT); format: cell-based; settings: 48 hours
Method: as §1, §2, §3, §4

BALB/c mice [3] = settings: administered in vivo, BALB/c mice immunized with sheep red blood cells
Method: F. Production of Anti Sheep Red Blood Cell Specific Antibody of Mouse B Cells
Fresh sheep red blood cells (SRBC) were washed 3 times with PBS (pH7.2), and diluted by 1:20;
Fresh serum of guinea pig was diluted by 1:10;
2×10^7/mL of mouse spleen cell suspension was prepared;
Each 1 mL of the above three solutions was mixed and incubated at 37° C. for 1.5 hours, then is centrifuged with 2500 rpm×15 min. OD value was measured at 520 nM.
BALB/c mice were sensitized 3 days after administration: the sheep red blood cells were washed 3 times with saline, and the SRBC pressed volume was diluted by a rate of 5%. Each mouse was intraperitoneally injected with 0.2 mL, and dissected to take its spleen 6 days after sensitization. And the production amount of the antibodies was measured.

IL-2 = settings: stimulator ConA, 24 hours
Method: (§5) D. Induction and Detection of Cytokine
(§6) 1. BALB/c mice were killed by cervical dislocation, their spleens were removed aseptically, and a single spleen cell suspension was prepared. After the red blood cells were removed, the cell concentration was adjusted to 5×10^6/mL with RPMI-1640 medium containing 10% FBS.
(§7) 2. 1 mL cell suspension, 0.5 mL test sample and 0.5 mL ConA (final concentration 5 μg/mL) or Sac (Staphylococcus aureus thallus containing staphylococcus protein A) (final concentration 0.01%) were added into […]; for the control group, 0.5 mL medium containing 10% FBS was added, the final volume was 2 mL.
(§8) 3. Incubated in 5% CO2 incubator at 37° C. for 24 or 48 hours, the supernatant was collected and freezed in −20° C. refrigerator, the cytokines was to be detected.
(§9) 4. Production of cytokines was detected with a double antibody sandwich enzyme linked immunosorbent assay (ELISA). TMB was used as substrate of the enzyme reaction, and the OD values was measured with a microplate reader at 450 nm. The production amount of cytokines of the samples was calculated according to the standard curve.

TNF-α = settings: stimulated with PMA; dose dependent
Method: as §5, §6, §7, §8, §9

IL-6 = settings: for production of cytokine IL-6: 24 hours
Method: as §5, §6, §7, §8, §9

IFN-γ = settings: for production of cytokine IFN-γ: 24 hours
Method: as §5, §6, §7, §8, §9

IL-12 = settings: for production of cytokine IL-12: 24 hours
Method: as §5, §6, §7, §8, §9

SD rats = settings: intraperitoneally injected
BALB/c mice [4] = settings: ear swelling
Method: Each rear paw of BALB/c mice (female, 6-8 weeks old) was sensitized with 20 μL 0.5% DNFB (2,4-dinitrofluorobenzene) on day 0, and was reinforced next day (DNFB was dissolved in an oil agent [acetone:olive oil=4:1]);
Inside and outside of left ear of the mice were challenged with 10 μL 0.4% DNFB at day 7-9;
The test sample was administrated once 1 hour before challenge by i.p. injection or intragastric adminatration. After 12 hours, administered again;
24-48 hours after challenge, each index was measured.
Note: For BALB/c mice (female, 6-8 weeks old), the concentration of sensitizing agent was 0.7%, the concentration of challenging agent was 0.6%.

[5] = test system: BALB/c mouse spleen cells and C57BL/6 mouse spleen cells
Method: C. Mixed Lymphocyte Reaction (MLR)
1. C57BL/6 and BALB/c mice were killed by cervical dislocation, their spleens were removed aseptically, and a single spleen cell suspension was prepared. After the red blood cells were removed, the cell concentration was adjusted to 4×10^6/mL with RPMI-1640 medium containing 10% FBS.
2. The spleen cells of C57BL/6 mice were response cells, and the spleen cells of BALB/c mice (irradiated with Co60, 3000 rads) were stimulator cells, the two kinds of cells were mixed with equal volumes.
3. 100 μL mixed cell suspension, 100 μL test sample were added into a 96-well plate; for the control group, 100 μL medium containing 10% serum was added, and single culture controls of the two kinds of cells were set.
4. Incubated in 5% CO2 incubator at 37° C. for 3, 4 or 5 days. 25 μL ^3H dilution (i.e. […] [^3H]-thymidine) was added 1 day before the termination of the incubation.
5. The incubation was terminated, the plate was freezed in a −20° C. refrigerator.
6. The cells were harvested with a cell harvestor ([…]96®, TOMTEC) on a glass fiber film, the incorporation of [^3H]-thymidine in DNA was detected with a liquid scintillation counter (MicroBeta Trilux®, PerkinElmer), which reflected the state of cell proliferation.

[6] = mouse spleen cells, ConA, read-out: Inhibiting activity of T lymphocyte proliferation response induced by ConA IC50
[7] = mouse spleen cells, read-out: Lymphocytotoxicity CC50
[8] = mouse spleen cells, LPS, read-out: Inhibiting activity of B lymphocyte proliferation response induced by LPS IC50
[9] = SM735 10−^5 Mol/L, stimulator LPS
[10] = SM735 10−^5 Mol/L, stimulator PMA + Ion
[11] = SM735 10−^6 Mol/L, stimulator LPS
[12] = SM735 10−^6 Mol/L, stimulator PMA + Ion
[13] = SM735 10−^7 Mol/L, stimulator LPS
[14] = SM735 10−^7 Mol/L, stimulator PMA + Ion

## C[C@@H]1CC[C@H]2[C@@H](C)C(=O)O[C@@H]3O[C@@]4(C)CC[C@@H]1[C@]32OO4 [artemisinine, artemisinin]
T lymphocyte; T-lymphocyte, mouse spleen cells, ConA, read-out: Inhibiting activity of T lymphocyte proliferation response induced by ConA IC50
  IC50: 4.43 µM
[1]
  CC50 at 48 h: 28.3 µM
B lymphocyte; Lymphocyte, mouse spleen cells, LPS, read-out: Inhibiting activity of B lymphocyte proliferation response induced by LPS IC50
  IC50: 8.96 µM

## C[C@H]1[C@H](OC(=O)CCC(=O)O)O[C@@H]2O[C@@]3(C)CC[C@H]4[C@H](C)CC[C@@H]1[C@@]24OO3 [artesunate, reference compound]
T lymphocyte; [6]
  IC50: 3.82 µM
[2]; [7]
  CC50: 86 µM

## COC(=O)Cc1ccc(OC2OC3OC4(C)CCC5C(C)CCC(C2C)C35OO4)cc1 (stereo not drawn) [compound 1, methyl 4-(12β-artemisininoxy)phenyl acetate]
T lymphocyte; [6]
  IC50: 0.713 µM
[2]; [7]
  CC50: 8 µM
B lymphocyte; [8]
  IC50: 0.179 µM

## CC1CCC2C(C)C(Oc3ccc(CC(=O)O)cc3)OC3OC4(C)CCC1C32OO4 (stereo not drawn) [compound 2, 4-(12β-artemisininoxy)phenyl acetic acid]
T lymphocyte; [6]
  IC50: 11.8 µM
[2]; [7]
  CC50: 100 µM
B lymphocyte; [8]
  IC50: 10.2 µM

## CC1CCC2C(C)C(Oc3cccc(OC(CC(=O)O)C(=O)O)c3)OC3OC4(C)CCC1C32OO4 (stereo not drawn) [compound 3, 3-(12β-artemisininoxy)phenoxy succinic acid]
BALB/c mice [3]
  antibody and complement production by mouse B cell (antibody forming cell): inhibited
T lymphocyte
  IC50, T lymphocyte proliferation response induced by ConA: 0.13 µg/mL (≈ 0.264 µM)
T lymphocyte; mean ± standard error, read-out: IC50, proliferation of spleen cells induced by ConA
  IC50: 0.33 ± 0.06 µM
T lymphocyte; [6]
  IC50: 0.327 µM
[2]; BALB/c mouse spleen cells
  cytotoxicity CC50: 27 µg/mL
[2]; BALB/c mouse spleen cells, mean ± standard error, read-out: cytotoxicity CC50
  CC50: 53.1 ± 7.8 µM
[2]; [7]
  CC50: 52.7 µM
IL-2; SM735 10−^5 Mol/L
  production of cytokine IL-2: 2053 ± 162 pg/mL
IL-2; SM735 10−^6 Mol/L
  production of cytokine IL-2: 2343 ± 154 pg/mL
IL-2; SM735 10−^7 Mol/L
  production of cytokine IL-2: 2250 ± 77 pg/mL
TNF-α
  production of TNF-α (result in words): obviously inhibited
IL-6; [9]
  production of cytokine IL-6: 522 ± 1 pg/mL
IL-6; [10]
  production of cytokine IL-6: 1465 ± 35 pg/mL
IL-6; [11]
  production of cytokine IL-6: 792 ± 42 pg/mL
IL-6; [12]
  production of cytokine IL-6: 2663 ± 52 pg/mL
IL-6; [13]
  production of cytokine IL-6: 840 ± 10 pg/mL
IL-6; [14]
  production of cytokine IL-6: 2886 ± 26 pg/mL
IL-6; stimulated with PMA, dose dependent
  production of IL-6 (result in words): obviously inhibited
IFN-γ; SM735 10−^5 Mol/L, stimulator ConA
  production of cytokine IFN-γ: 322 ± 18 pg/mL
IFN-γ; [9]
  production of cytokine IFN-γ: 103 ± 7 pg/mL
IFN-γ; [10]
  production of cytokine IFN-γ: 144 ± 21 pg/mL
IFN-γ; SM735 10−^6 Mol/L, stimulator ConA
  production of cytokine IFN-γ: 976 ± 18 pg/mL
IFN-γ; [11]
  production of cytokine IFN-γ: 172 ± 2 pg/mL
IFN-γ; [12]
  production of cytokine IFN-γ: 557 ± 31 pg/mL
IFN-γ; SM735 10−^7 Mol/L, stimulator ConA
  production of cytokine IFN-γ: 1219 ± 33 pg/mL
IFN-γ; [13]
  production of cytokine IFN-γ: 207 ± 13 pg/mL
IFN-γ; [14]
  production of cytokine IFN-γ: 768 ± 6 pg/mL
IFN-γ; activated lymphocytes
  production of IFN-γ (result in words): inhibited
IL-12; [9]
  production of cytokine IL-12: 292 ± 26 pg/mL
IL-12; [10]
  production of cytokine IL-12: 198 ± 35 pg/mL
IL-12; [11]
  production of cytokine IL-12: 565 ± 18 pg/mL
IL-12; [12]
  production of cytokine IL-12: 487 ± 37 pg/mL
IL-12; [13]
  production of cytokine IL-12: 592 ± 33 pg/mL
IL-12; [14]
  production of cytokine IL-12: 586 ± 52 pg/mL
IL-12; activated lymphocytes
  production of IL-12 (result in words): inhibited
SD rats
  effect in rat adjuvant-induced arthritis animal model: certain preventive and therapeutic effect
BALB/c mice [4]
  DTH reaction induced by DNFB: inhibited
B lymphocyte
  IC50, B lymphocyte proliferation response induced by LPS: 0.12 µg/mL (≈ 0.244 µM)
B lymphocyte; mean ± standard error, read-out: IC50, proliferation of spleen cells induced by LPS
  IC50: 0.27 ± 0.02 µM
B lymphocyte; [8]
  IC50: 0.265 µM
[5]; 96 hours
  IC50, proliferation response caused by mixed lymphocyte reaction: 2.1 µg/mL (≈ 4.26 µM)
[5]; read-out: IC50, one way mixed lymphocyte reaction, co-cultured for 96 hours, no unit printed
  IC50: 0.86 ± 0.18 µM

## CC1CCC2C(C)C(Oc3ccc(OCC(=O)OCCN(C)C)cc3)OC3OC4(C)CCC1C32OO4 (stereo not drawn) [compound 4, dimethylaminoethyl-[4-(12β-artemisininoxy)phenoxy] acetate]
T lymphocyte; [6]
  IC50: 1.96 µM
[2]; [7]
  CC50: 2.08 µM
B lymphocyte; [8]
  IC50: 0.0496 µM

## CCOC(=O)CNC(=O)c1ccc(OC2OC3OC4(C)CCC5C(C)CCC(C2C)C35OO4)cc1 (stereo not drawn) [compound 5, ethyl-[4-(12β-artemisininoxy)benzoyl] aminoacetate]
T lymphocyte; [6]
  IC50: 2.53 µM
[2]; [7]
  CC50: 39 µM
B lymphocyte; [8]
  IC50: 0.16 µM

## COC(=O)C(C)c1ccc(OC2OC3OC4(C)CCC5C(C)CCC(C2C)C35OO4)cc1 (stereo not drawn) [compound 21, methyl 2-[4-(12β-artemisininoxy)phenyl] propionate]
T lymphocyte; [6]
  IC50: 0.064 µM
[2]; [7]
  CC50: 7.8 µM
B lymphocyte; [8]
  IC50: 0.16 µM
